{"source": "the Deep4Chem optical property database", "assay": "photoluminescence quantum yield (fraction); solvent given as SMILES", "data": [{"compound": "COc1cccc2oc(-c3cc4c(OC)cccc4oc3=O)cc12", "values": [{"measurement": "photoluminescence quantum yield", "setting": "in CS(C)=O", "result": 0.68}]}, {"compound": "COc1ccc(-c2nc(-c3ccccc3OC)[nH]c2-c2ccc(OC)cc2)cc1", "values": [{"measurement": "photoluminescence quantum yield", "setting": "in CO", "result": 0.27}]}, {"compound": "COc1c(-c2ccc(N(C)C)cc2)oc2ccccc2c1=O", "values": [{"measurement": "photoluminescence quantum yield", "setting": "in C1CCCCC1", "result": 0.048}, {"measurement": "photoluminescence quantum yield", "setting": "in C1CCOC1", "result": 0.88}, {"measurement": "photoluminescence quantum yield", "setting": "in CC#N", "result": 0.69}, {"measurement": "photoluminescence quantum yield", "setting": "in CO", "result": 0.021}]}, {"compound": "C[Si]1(c2ccccc2)C(c2ccc3c4ccccc4n(-c4ccccc4)c3c2)=C(c2ccccc2)C(c2ccccc2)=C1c1ccc2c3ccccc3n(-c3ccccc3)c2c1", "values": [{"measurement": "photoluminescence quantum yield", "setting": "in C1CCOC1", "result": 0.0575}]}, {"compound": "N#Cc1ccc(/C=C2\\OC(=O)c3cc(N)ccc32)cc1", "values": [{"measurement": "photoluminescence quantum yield", "setting": "in CC#N", "result": 0.062}, {"measurement": "photoluminescence quantum yield", "setting": "in CC(C)=O", "result": 0.05}, {"measurement": "photoluminescence quantum yield", "setting": "in CC(C)CO", "result": 0.17}, {"measurement": "photoluminescence quantum yield", "setting": "in CC(C)O", "result": 0.16}, {"measurement": "photoluminescence quantum yield", "setting": "in CCCO", "result": 0.14}, {"measurement": "photoluminescence quantum yield", "setting": "in CCO", "result": 0.13}, {"measurement": "photoluminescence quantum yield", "setting": "in CCOC(C)=O", "result": 0.047}, {"measurement": "photoluminescence quantum yield", "setting": "in CCOCC", "result": 0.031}, {"measurement": "photoluminescence quantum yield", "setting": "in CO", "result": 0.11}]}, {"compound": "CCN(CC)c1ccc2cc(/C=C3\\CCCc4c3[o+]c3cc(N(CC)CC)ccc3c4-c3ccccc3C(=O)O)c(=O)oc2c1", "values": [{"measurement": "photoluminescence quantum yield", "setting": "in ClCCl", "result": 0.07}]}, {"compound": "CCCCCCOc1cc(N(CC)CC)ccc1/C=C/C(=C(C#N)C#N)c1ccc(N(c2ccccc2)c2ccccc2)cc1", "values": [{"measurement": "photoluminescence quantum yield", "setting": "in ClCCl", "result": 0.178}]}, {"compound": "NC(=O)CC[C@H](/[NH+]=C\\C=C1\\C=C(C(=O)O)N[C@H](C(=O)O)C1)C(=O)O", "values": [{"measurement": "photoluminescence quantum yield", "setting": "in CCO", "result": 0.017}, {"measurement": "photoluminescence quantum yield", "setting": "in CO", "result": 0.011}, {"measurement": "photoluminescence quantum yield", "setting": "in O", "result": 0.0073}, {"measurement": "photoluminescence quantum yield", "setting": "in OCC(F)(F)F", "result": 0.014}, {"measurement": "photoluminescence quantum yield", "setting": "in OCCO", "result": 0.039}]}, {"compound": "O=c1[nH]nc(-c2ccc(/C=C/c3ccc(-c4n[nH]c(=O)o4)cc3)cc2)o1", "values": [{"measurement": "photoluminescence quantum yield", "setting": "in CN(C)C=O", "result": 0.5}]}, {"compound": "COc1ccc(/C=C/c2nc3c4ccccc4c4ccccc4c3o2)cc1", "values": [{"measurement": "photoluminescence quantum yield", "setting": "in CC#N", "result": 0.35}]}, {"compound": "c1ccc(-c2nc(-c3ccccn3)[se]c2N(c2ccccc2)c2ccccc2)cc1", "values": [{"measurement": "photoluminescence quantum yield", "setting": "in ClC(Cl)Cl", "result": 0.113}]}, {"compound": "CC1(C)CCc2c(c3ccccc3c3nc4ccccc4nc23)O1", "values": [{"measurement": "photoluminescence quantum yield", "setting": "in C1CCCCC1", "result": 0.05}, {"measurement": "photoluminescence quantum yield", "setting": "in C1CCOC1", "result": 0.1}, {"measurement": "photoluminescence quantum yield", "setting": "in CN(C)C=O", "result": 0.13}, {"measurement": "photoluminescence quantum yield", "setting": "in CO", "result": 0.23}, {"measurement": "photoluminescence quantum yield", "setting": "in ClC(Cl)Cl", "result": 0.17}, {"measurement": "photoluminescence quantum yield", "setting": "in c1ccccc1", "result": 0.12}]}, {"compound": "N[C@@H](Cn1nnc2cc(-c3ccc(N4CCOCC4)cc3)ccc21)C(=O)O", "values": [{"measurement": "photoluminescence quantum yield", "setting": "in CO", "result": 0.004}]}, {"compound": "CCOC(=O)C(Cc1ccc(O[Si]2(Oc3ccc(CC(NC(C)=O)C(=O)OCC)cc3)n3c4c5ccccc5c3/N=C3N=C(/N=c5/c6ccccc6/c(n52)=N/C2=NC(=N\\4)/c4ccccc42)c2ccccc2\\3)cc1)NC(C)=O", "note": "(stereo unspecified)", "values": [{"measurement": "photoluminescence quantum yield", "setting": "in CN(C)C=O", "result": 0.11}]}, {"compound": "CCC1(CC)c2ccccc2-c2c1c1c(c3c2C(CC)(CC)c2cc(N(c4ccccc4)c4ccccc4)ccc2-3)C(CC)(CC)c2cc(N(c3ccccc3)c3ccccc3)ccc2-1", "values": [{"measurement": "photoluminescence quantum yield", "setting": "in C1CCOC1", "result": 0.36}]}, {"compound": "CCCCN1/C(=C/C=C/C2=[N+](C)c3ccccc3C2(C)C)C(C)(C)c2cc(Br)ccc21", "values": [{"measurement": "photoluminescence quantum yield", "setting": "in CS(C)=O", "result": 0.12}]}, {"compound": "CCN(CC)c1ccc2cc(-c3nc4ccccc4s3)c(=O)oc2c1", "values": [{"measurement": "photoluminescence quantum yield", "setting": "in C1CCCCC1", "result": 0.59}, {"measurement": "photoluminescence quantum yield", "setting": "in CC1CCCCC1", "result": 0.56}, {"measurement": "photoluminescence quantum yield", "setting": "in CC#N", "result": 0.43}, {"measurement": "photoluminescence quantum yield", "setting": "in CCC(C)CC", "result": 0.57}, {"measurement": "photoluminescence quantum yield", "setting": "in CCCCCC", "result": 0.57}, {"measurement": "photoluminescence quantum yield", "setting": "in CCOC(C)=O", "result": 0.47}]}, {"compound": "COC1=[N+]2C(=C(c3ccccc3)c3ccc(OC)n3[B-]2(F)F)C=C1", "values": [{"measurement": "photoluminescence quantum yield", "setting": "in CC#N", "result": 0.11}, {"measurement": "photoluminescence quantum yield", "setting": "in CCCCCC", "result": 0.12}, {"measurement": "photoluminescence quantum yield", "setting": "in CCOC(C)=O", "result": 0.11}, {"measurement": "photoluminescence quantum yield", "setting": "in CO", "result": 0.14}, {"measurement": "photoluminescence quantum yield", "setting": "in ClCCl", "result": 0.2}]}, {"compound": "c1ccc(N2c3ccc4ccccc4c3-c3c4ccccc4cn[n+]3[B-]2(c2ccccc2)c2ccccc2)cc1", "values": [{"measurement": "photoluminescence quantum yield", "setting": "in Cc1ccccc1", "result": 0.05}]}, {"compound": "N#Cc1ccc(-n2c(-c3ccc(-c4ccc(-c5nc6c7ccccc7c7ccccc7c6n5-c5ccc(C#N)c6ccccc56)cc4)cc3)nc3c4ccccc4c4ccccc4c32)c2ccccc12", "values": [{"measurement": "photoluminescence quantum yield", "setting": "in ClCCl", "result": 0.85}]}, {"compound": "CCCCCCCCCCCCC(CCCCCCCCCC)Cn1c2cc(/C=C/c3nc4ccccc4s3)c3cccc4c5cccc6c(/C=C/c7nc8ccccc8s7)cc1c(c65)c2c34", "note": "(stereo unspecified)", "values": [{"measurement": "photoluminescence quantum yield", "setting": "in C1CCCCC1", "result": 0.42}, {"measurement": "photoluminescence quantum yield", "setting": "in CC#N", "result": 0.434}, {"measurement": "photoluminescence quantum yield", "setting": "in Cc1ccccc1", "result": 0.398}, {"measurement": "photoluminescence quantum yield", "setting": "in ClCCl", "result": 0.369}]}, {"compound": "CCN(CC)c1ccc(/C=C/c2ccc(-c3ccc(/C=C/c4ccc(N(CC)CC)cc4)s3)s2)cc1", "values": [{"measurement": "photoluminescence quantum yield", "setting": "in C1CCOC1", "result": 0.14}, {"measurement": "photoluminescence quantum yield", "setting": "in CC#N", "result": 0.13}, {"measurement": "photoluminescence quantum yield", "setting": "in CC(C)=O", "result": 0.13}, {"measurement": "photoluminescence quantum yield", "setting": "in CN(C)C=O", "result": 0.12}, {"measurement": "photoluminescence quantum yield", "setting": "in Cc1ccccc1", "result": 0.14}]}, {"compound": "CC(C)(C)c1ccc(-c2cc(-c3ccc(-c4cc(-c5ccc(C(C)(C)C)cc5)c(C(=O)NCc5cccs5)s4)s3)sc2C(=O)NCc2cccs2)cc1", "values": [{"measurement": "photoluminescence quantum yield", "setting": "in ClCCl", "result": 0.33}]}, {"compound": "COc1ccc(-c2cc3c(s2)c(-c2ccccc2)cc(=O)n3C)cc1", "values": [{"measurement": "photoluminescence quantum yield", "setting": "in CC#N", "result": 0.42}, {"measurement": "photoluminescence quantum yield", "setting": "in ClCCl", "result": 0.46}]}, {"compound": "CC1(C)c2ccccc2N(c2ccc3c(c2)c2cc(N4c5ccccc5C(C)(C)c5ccccc54)ccc2c2nc4ccccc4nc32)c2ccccc21", "values": [{"measurement": "photoluminescence quantum yield", "setting": "in c1cc(-c2cccc(-n3c4ccccc4c4ccccc43)c2)cc(-n2c3ccccc3c3ccccc32)c1", "result": 0.84}]}, {"compound": "F[B-]1(F)n2c(cc(-c3ccccc3)c2-c2ccccc2)C(c2ccccc2)=C2C=C(c3ccccc3)C(c3ccccc3)=[N+]21", "values": [{"measurement": "photoluminescence quantum yield", "setting": "in C1CCOC1", "result": 0.33}, {"measurement": "photoluminescence quantum yield", "setting": "in CC#N", "result": 0.34}, {"measurement": "photoluminescence quantum yield", "setting": "in Cc1ccccc1", "result": 0.64}, {"measurement": "photoluminescence quantum yield", "setting": "in ClCCl", "result": 0.4}]}]}
